Non-standard residues stand in square brackets, D forms with d. Residues, ends and D or L forms follow the SMILES beside them. *: point of attachment. Myristoyl = CCCCCCCCCCCCCC(=O)*; Octanoyl = CCCCCCCC(=O)*
What was measured:
[1] = In vitro Colonic Material Stability Assay; assay type: in vitro ADME; settings: for Assay 3 (% Remaining at 24 h): colonic material slurry, anaerobic, 1 or 10 μM; for Selective delivery to the colon (conclusion from Table 2): from SGF, SIF and colonic material stability
Method in brief: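 Compounds were added at 1 or 10 μM final to colonic material slurry (6.7 μL of 15% w/v slurry per 1 mL YCFAC or similar medium). Samples taken at 0–2880 min were acetonitrile-quenched and the remaining compound quantified by LC/MS.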

E. coli Nissle 1917 = assay: Payload release in the presence of fecal matter, ClbP positive E. coli; assay type: cell-based; settings: 10 μM compound, anaerobic, 37° C., 20 h, LCMS
From the text: (§1) This example is representative of the methods described in Example 103. Fecal samples were subjected to metagenomic whole-genome shotgun sequencing followed by querying the dataset for the presence of the clbP gene or by attempting to amplify the gene with primers specific for it by qPCR. Samples that gave a signal below the detection limit were used in subsequent steps. The fecal sample was resuspended as a 15% (w/v) slurry in Anaerobic Phosphate Buffer Saline.
(§2) Following steps 1 and 2 as detailed in Example 98, E. coli CFT073 ATCC 700928, E. coli Nissle 1917, or E. coli BL21(DE3) were grown in liquid culture.
(§3) In an anaerobic chamber, the E. coli strains were added to the fecal samples obtained in step 1 at a dilution level calculated to represent 0, 1, 10, 50, 90, 99, or 100% of all organisms present in PRAS dilution blank on a 200 μL volume. The test compound (10 μM final concentration) was added to the mixture. The test compound was also added to a bacteria-free media control under similar conditions. The plate was sealed and incubated at 37° C. for 20 h. Under similar conditions, a standard curve of both the starting material and the payload compound was made in bacteria-free media.
(§4) After 20 h, an aliquot was tested for breakdown and release of a payload by LCMS by diluting serially to a final dilution of 1:100 first with Acetonitrile (10× dilution) and then with (1:1) Mobile Phase A-0.1% Formic Acid in Water:Mobile Phase B-0.1% Formic acid in Acetonitrile (1 OX dilution), with absolute quantification compared to the external standard curve. In an ideal case, the amount of payload released in the reaction(s) with ClbP-encoding E. coli was >75% of the theoretical maximum, and none was released in the E. coli BL21(DE3) and media-alone conditions. In an acceptable case, the amount of payload released in the reaction(s) with ClbP-encoding E. coli was 25-75% of the theoretical maximum, and <25% of the theoretical maximum was released in the E. coli BL21(DE3) and media-alone conditions. In a non-preferred case, the amount of payload released in the reactions(s) with ClbP-encoding E. coli was <25% of the theoretical maximum, and >25% of the theoretical maximum was released in the E. coli BL21(DE3) and media-alone conditions.

E. coli BL21(DE3) = assay: Payload release in the presence of fecal matter, ClbP negative E. coli; assay type: cell-based; settings: 10 μM compound, anaerobic, 37° C., 20 h, LCMS
From the text: as §1, §2, §3, §4

CT26.CL25 cells = assay: Cell viability readout (CellTiter-Glo) with bacteria-free media; assay type: cell-based, mouse; settings: 10 nM compound, CT26.CL25 cells, 72 h, CellTiter-Glo
Description: Example 100: Cell-Based Assay of Bacterial Enzymes with Mammalian CT26.CL25 Mouse Colorectal Carcinoma Viability Readout
Bacteria-free media was incubated with the indicated test compound. ((R)—N1-(2-(methylamino)ethyl)-2-octanamidosuccinamide, a recognition element-linker conjugate lacking a payload, was serially diluted 1:1000 in DMSO and […] in medium+10% FBS to give a final concentration of 10 nM. Compound 35, Compound 76, Compound 77, Compound 78, Compound 79, and SN-38 were serially diluted 1:1000 in DMSO and 1:1000 in medium to give a final concentration of 10 nM, and then the bacteria-free supernatants were tested for their ability to kill mammalian cells. As an additional control, the test compound will also be incubated with bacteria-free media. The above steps can also be performed in the presence of E. coli (CFT073 ATCC 700928, Nissle 1917, or BL21 (DE3)) to effect cleavage of the conjugates of the application.
On Day 1, CT26.CL25 cells (15,000 cells/well) were seeded in triplicate into a 24 well plate and incubated overnight in 100 μL of complete medium. The reactions (bacteria or media blank) was pelleted by centrifugation, and then the supernatant was passed through a 0.2 μm sterile filter to remove residual bacteria.
On Day 2, 300 μL of a 10 nM solution of each compound in media were applied to separate wells of CT26.CL25 cells as prepared on Day 1. The cells were incubated at 37° C. for 72 h. After this point, viability was assessed using a CellTiter-Glo kit.
Binning of the compounds was achieved by measuring cell growth or arrest (e.g. remaining cells are >90% viable, >80% viable, >70% viable, >60% viable, >50% viable, >40% viable, >30% viable, >20% viable, or >10% viable).

SMILES	Assay 3 (% Remaining at 24 h) [1]	also measured
CCCCCCCC(=O)N[C@H](CCCNC(=N)N)C(=O)N[C@@H](C)C(=O)OC [Example 11, Methyl octanoyl-D-arginyl-L-alaninate] (Octanoyl-[dR]-Ala-OMe)	C (>75% of the tested compound remaining)	
CCCCCCCC(=O)N[C@H](CCC(N)=O)C(=O)N[C@@H](C)C(=O)OC [Example 10, Methyl octanoyl-D-glutaminyl-L-alaninate] (Octanoyl-[dQ]-Ala-OMe)	C (>75% of the tested compound remaining)	
COC(=O)[C@H](C)NC(=O)[C@@H](CC(N)=O)NC(=O)[C@@H](C)c1ccc2cc(OC)ccc2c1 [Example 18, Methyl ((S)-2-(6-methoxynaphthalen-2-yl)propanoyl)-D-asparaginyl-L-alaninate]	C (>75% of the tested compound remaining)	
CCCCCCCCCCCCCC(=O)N[C@H](CC(N)=O)C(=O)N[C@@H](C)CCC(=O)O[C@]1(CC)C(=O)OCc2c1cc1n(c2=O)Cc2c-1nc1ccc(O)cc1c2CC [Example 35, (S)-4,11-diethyl-9-hydroxy-3,14-dioxo-3,4,12,14-tetrahydro-1H-pyrano[3′,4′:6,7]indolizino[1,2-b]quinolin-4-yl (S)-4-((R)-4-amino-4-oxo-2-tetradecanamidobutanamido)pentanoate]		% payload released in ClbP positive (Nissle 1917) at 1:1 ratio of E. coli to fecal bacteria (E. coli Nissle 1917): 0.9%; % payload released in ClbP negative (BL21 DE3) at 1:1 ratio of E. coli to fecal bacteria (E. coli BL21(DE3)): 0.6%; Bacteria-free media (Luminescence, average of three runs) (CT26.CL25 cells): 380490
CCCCCCCCCCCCCC(=O)N[C@H](CC(N)=O)C(=O)Nc1ccc(COC)cc1 [Example 22, (R)—N1-(4-(methoxymethyl)phenyl)-2-tetradecanamidosuccinamide]	A (<25% of the tested compound remaining)	Selective delivery to the colon (conclusion from Table 2) [1]: can be selectively delivered to the colon
CCCCCCCC(=O)N[C@@H](CC(N)=O)C(=O)N[C@@H](C)C(=O)OC [Example 4, Methyl octanoyl-L-asparaginyl-L-alaninate] (Octanoyl-Asn-Ala-OMe)	A (<25% of the tested compound remaining)	
CCCCCCCC(=O)N[C@H](CC(N)=O)C(=O)N[C@H](C)C(=O)OC [Example 5, Methyl octanoyl-D-asparaginyl-D-alaninate] (Octanoyl-[dN]-[dA]-OMe)	C (>75% of the tested compound remaining)	
CCCCCCCC(=O)N[C@H](CC(N)=O)C(=O)N[C@H](C(=O)OC)C(C)C [Example 6, Methyl octanoyl-D-asparaginyl-L-valinate] (Octanoyl-[dN]-Val-OMe)	B (25-75% of the tested compound remaining)	
CCCCCCCC(=O)N[C@H](CC(N)=O)C(=O)N[C@@H](CC(C)C)C(=O)OC [Example 7, Methyl octanoyl-D-asparaginyl-L-leucinate] (Octanoyl-[dN]-Leu-OMe)	A (<25% of the tested compound remaining)	
CCCCCCCCCCCCCC(=O)N[C@H](CC(N)=O)C(=O)NCCCC(=O)OC [Example 20, Methyl (R)-4-(4-amino-4-oxo-2-tetradecanamidobutanamido)butanoate]	A (<25% of the tested compound remaining)	Selective delivery to the colon (conclusion from Table 2) [1]: can be selectively delivered to the colon
CCCCCCCCCCCCCC(=O)N[C@H](CC(N)=O)C(=O)N[C@@H](C)C(=O)OC [Example 1, Methyl tetradecanoyl-D-asparaginyl-L-alaninate] (Myristoyl-[dN]-Ala-OMe)	A (<25% of the tested compound remaining)	
CCCCCCCC(=O)N[C@H](CC(N)=O)C(=O)N[C@@H](C)C(=O)OC [Example 2, Methyl octanoyl-D-asparaginyl-L-alaninate] (Octanoyl-[dN]-Ala-OMe)	C (>75% of the tested compound remaining)	
CCCCCCCC(=O)N[C@H](CCC(=O)O)C(=O)N[C@@H](C)C(=O)OC [Example 9, (R)-5-(((S)-1-methoxy-1-oxopropan-2-yl)amino)-4-octanamido-5-oxopentanoic acid] (Octanoyl-[dE]-Ala-OMe)	B (25-75% of the tested compound remaining)	
CCCCCCCC(=O)N[C@H](CC(N)=O)C(=O)NCCN(C)C(=O)Oc1ccc2c(C)cc(=O)oc2c1 [Example 70, 4-methyl-2-oxo-2H-chromen-7-yl (R)-(2-(4-amino-2-octanamido-4-oxobutanamido)ethyl)(methyl)carbamate]	C (>75% of the tested compound remaining)	% payload released in ClbP positive (Nissle 1917) at 1:1 ratio of E. coli to fecal bacteria (E. coli Nissle 1917): 25.1%; % payload released in ClbP negative (BL21 DE3) at 1:1 ratio of E. coli to fecal bacteria (E. coli BL21(DE3)): 1.9%
CCCCCCCCCCCCCC(=O)N[C@H](CC(N)=O)C(=O)N[C@@H](C)CCC(=O)OC [Example 21, Methyl (S)-4-((R)-4-amino-4-oxo-2-tetradecanamidobutanamido)pentanoate]	B (25-75% of the tested compound remaining)	Selective delivery to the colon (conclusion from Table 2) [1]: can be selectively delivered to the colon
